# “Also recorded” adds a separate entry of the source.
# Columns and labels:
# [1] = test system: WT mice exposed to LTIH; test: Sleep/wake recordings and murine multiple sleep latency test after long-term intermittent hypoxia (LTIH); type: in vivo; details: for sleep latency: vs LTIH DMSO vehicle-treated mice
# From the text: Ten-week old male C57BL/6J (B6) mice, gp91^phox−/− mice (B6.129S6-Cybb^tmldin) backcrossed 12 generations to C57BL/6J 000664 and gp91^phox+/+ (WT) backcrossed substrain C57BL/6J 000664 mice (Jackson Laboratory, Bar Harbor, Me.) were studied. Methods and study protocols were approved in full by the Institutional Animal Care and Use Committee of the University of Pennsylvania, conforming with the revised NIH Office of Laboratory Animal Welfare Policy. Food and water were provided ad libitum. Mice were confirmed pathogen free at the time of studies.
# (§1) A detailed description of the long-term intermittent hypoxia (LTIH) protocol was recently published. An automated nitrogen/oxygen delivery profile system (Oxycycler model A84XOV; Biospherix, Redfield, N.Y.) produced brief reductions in housing chamber ambient oxygen levels from 21% to 10% for 5 sec every 90 sec, resulting in arterial oxyhemoglobin saturation fluctuations between 95-98% and 83-86%. Sham LTIH, with ambient FIO2 fluctuations from 21% to 19% every 90 sec, held arterial oxyhemoglobin values constant between 96-98%. Both conditions were produced for 10 hr of the lights-on period for a total of 8 wks. Humidity, ambient CO2 and environmental temperature were held constant.
# To determine if NADPH oxidase inhibition would also prevent LTIH gene responses, a third series of mice examined for gene responses were WT mice treated systemically throughout LTIH or sham LTIH with 3 mg/kg/day apocynin (Sigma-Aldrich) in DMSO, DMSO or PBS delivered subcutaneously (n=10/group) by way of micro-osmotic pump (1002, Durect, Cupertino, Calif.).
# After 8 wks of LTIH or sham LTIH exposures, mice were returned to normoxic conditions for 1 wk. Surgical implantation of electrodes and electrophysiological recordings followed using previously described electrode implantation methods (32). Following 3 d post-operative recovery, mice were connected to recording cables in individual cages, and 4 d later sleep recordings were initiated (beginning 2 wk into recovery from LTIH). Baseline sleep was recorded for 5 days. On recording day 6, a baseline murine multiple sleep latency test (MMSLT) was performed (4 nap opportunities between 2 p.m. and 4 p.m.) to measure baseline sleep propensity (33). On recording day 7, sleep deprivation was performed for 6 hours of the light period (8 a.m. to 2 p.m.), followed by a second MSLT and then recovery sleep was recorded for 12 h. The behavioral state acquisition and analysis program used for these studies was ACQ 3.4 (34), with modifications and behavioral state parameters as previously described (7, 9, 32). Primary variables were total sleep time/24 hr, total NREM sleep time/24 hr and REM sleep time/24 hr, and average sleep latency, before and after short-term sleep loss.
# To further investigate the role of NADPH oxidase in the LTIH-induced hypersomnolence and sleepiness, a series of WT mice were implanted with osmotic pumps to systemically deliver either a selective NADPH oxidase inhibitor, apocynin at 3 mg/kg/day, vehicle (dimethylsulfoxide, DMSO) or buffered saline throughout LTIH exposure for 8 wks. Pumps were removed and mice were implanted for sleep recordings as described above for studies in gp91^phox null mice. Apocynin therapy prevented both LTIH reduced wake times and shortened sleep latency.
# [2] = test system: TNF-α mRNA; test: Taqman real-time PCR of TNF-α gene response to LTIH, lateral basal forebrain; type: in vivo, mice
# From the text: A detailed description of the long-term intermittent hypoxia (LTIH) protocol was recently published. An automated nitrogen/oxygen delivery profile system (Oxycycler model A84XOV; Biospherix, Redfield, N.Y.) produced brief reductions in housing chamber ambient oxygen levels from 21% to 10% for 5 sec every 90 sec, resulting in arterial oxyhemoglobin saturation fluctuations between 95-98% and 83-86%. Sham LTIH, with ambient FIO2 fluctuations from 21% to 19% every 90 sec, held arterial oxyhemoglobin values constant between 96-98%. Both conditions were produced for 10 hr of the lights-on period for a total of 8 wks. Humidity, ambient CO2 and environmental temperature were held constant. To determine if LTIH results in lasting increases in NADPH oxidase and microglial gene responses, real-time Taqman PCR was performed on laser-captured microdissections or macropunches of selected brain regions in mice exposed to sham LTIH or LTIH, two weeks into recovery to parallel sleep studies, using our methods, as previously published (12, 25). Real-time measurement of a NADPH oxidase subunit (p67^phox). To accomplish this, two weeks following conditions of either sham LTIH or LTIH, mice were perfused with PBS; brains were immediately frozen and sectioned (10 μm) for laser-capture microdissections of the following wake-active or hypoxia sensitive regions: frontal cortex (layer V), nucleus basalis […]/substantia inominata/horizontal diagonal band, hippocampus CA1, striatum, lateral hypothalamus, dorsal raphe nucleus, and locus coeruleus, or the following sleep-active adjacent brain regions: median septal diagonal band, medial preoptic area, and ventrolateral preoptic area, collecting 100 captures (40 μm diameter) per region in each mouse (n=6 mice/condition). RNA was purified and cDNA created for primer sets for primer/probe sets in Table 1, for Taqman real time PCR (SDS-7900HT, ABI). […] A second series of mice used for LTIH gene responses were gp91^phox-/- and +/+ mice exposed to either sham LTIH or LTIH for proinflammatory responses. […]
# [3] = test system: iNOS; test: iNOS activity in lateral basal forebrain homogenates ([14C] L-arginine to L-citrulline conversion); type: in vivo, mice; details: for LTIH increase in iNOS activity: apocynin throughout LTIH
# Experimental: FIG. 5. NADPH oxidase inhibition confers resistance to the long-term intermittent hypoxia (LTIH) proinflammatory response. Proinflammatory gene expression was measured in micropunches in the lateral basal forebrains in gp91^phox wild type controls (gp91^phox WT, n=10) and gp91^phox null mice (gp91^phox null, n=10) for A, TNF-a; B, COX-2 and C, iNOS mRNA copies/2 µg total RNA. D. Total NOS activity (left columns), measured as L-arginine conversion of [^14C] L-arginine to L-citrulline and iNOS activity (right columns) was measured using […] S-Ethyl-N-[4-trifluoromethyl)phenyl]isothiourea (ETPI) added to homogenates (12). […] A detailed description of the long-term intermittent hypoxia (LTIH) protocol was recently published. An automated nitrogen/oxygen delivery profile system (Oxycycler model A84XOV; Biospherix, Redfield, N.Y.) produced brief reductions in housing chamber ambient oxygen levels from 21% to 10% for 5 sec every 90 sec, resulting in arterial oxyhemoglobin saturation fluctuations between 95-98% and 83-86%. Sham LTIH, with ambient FIO2 fluctuations from 21% to 19% every 90 sec, held arterial oxyhemoglobin values constant between 96-98%. Both conditions were produced for 10 hr of the lights-on period for a total of 8 wks. Humidity, ambient CO2 and environmental temperature were held constant. To determine if NADPH oxidase inhibition would also prevent LTIH gene responses, a third series of mice examined for gene responses were WT mice treated systemically throughout LTIH or sham LTIH with 3 mg/kg/day apocynin (Sigma-Aldrich) in DMSO, DMSO or PBS delivered subcutaneously (n=10/group) by way of micro-osmotic pump (1002, Durect, Cupertino, Calif.). […] Lateral basal forebrain iNOS activity was compared in mice treated with or without apocynin throughout LTIH (FIG. 5D). Apocynin therapy, relative to saline therapy had no effect on baseline (sham LTIH) iNOS activity. […] Thus, apocynin therapy throughout LTIH prevented the expected increase in iNOS activity.
# [4] = test system: iNOS mRNA; test: Taqman real-time PCR of iNOS gene response to LTIH, lateral basal forebrain; type: in vivo, mice; details: apocynin throughout LTIH
# From the text: as §1, with “constant. To determine if LTIH results in lasting increases in NADPH oxidase and microglial gene responses, real-time Taqman PCR was performed on laser-captured microdissections or macropunches of selected brain regions in mice exposed to sham LTIH or LTIH, two weeks into recovery to parallel sleep studies, using our methods, as previously published (12, 25). Real-time measurement of a NADPH oxidase subunit (p67^phox). […]” for “constant.”
# [5] = test system: COX-2 mRNA; test: Taqman real-time PCR of COX-2 gene response to LTIH, lateral basal forebrain; type: in vivo, mice; details: apocynin in DMSO vehicle throughout LTIH
# From the text: as §1, with “constant. To determine if LTIH results in lasting increases in NADPH oxidase and microglial gene responses, real-time Taqman PCR was performed on laser-captured microdissections or macropunches of selected brain regions in mice exposed to sham LTIH or LTIH, two weeks into recovery to parallel sleep studies, using our methods, as previously published (12, 25). Real-time measurement of a NADPH oxidase subunit (p67^phox). […]” for “constant.”
# [6] = apocynin 3 mg/kg/day throughout LTIH
smiles,measurement,setting,value
"COc1cc(C(C)=O)ccc1O [apocynin, 4-hydroxy-3′-methoxy-acetophenon]",NREMS time,"[1]; apocynin 3 mg/kg/day by osmotic pump throughout 8 wks LTIH, relative to saline and DMSO vehicle",reduced NREMS time
same,wake time/24 hr,"[1]; apocynin 3 mg/kg/day by osmotic pump throughout 8 wks LTIH, relative to saline and DMSO vehicle, 2 wk into recovery",increased wake times; also recorded: prevented LTIH-induced impaired wakefulness and hypersomnolence
same,sleep latency vs WT mice without intervention or sham LTIH,[1]; [6],not significantly different
same,sleep latency,[1]; [6],significantly higher than LTIH DMSO vehicle-treated mice
same,sleep latency,"[1]; apocynin 3 mg/kg/day throughout LTIH, listed as Apocynin",prevented LTIH reduced sleep latency
same,LTIH increase in TNF-α gene expression (vs sham LTIH),[2]; apocynin throughout LTIH,completely prevented the increases in TNF-α gene expression
same,TNF-α response as % of the saline LTIH response,[2]; apocynin throughout LTIH,7%
same,"LTIH TNF-α response, Apo vs. DMSO, % lower",[2]; apocynin vs DMSO vehicle during LTIH,73%
same,"reduction in iNOS activity, apocynin treated vs. untreated mice",[3]; LTIH,60%
same,LTIH increase in iNOS activity,[3],prevented the LTIH increase in iNOS activity
same,LTIH increase in iNOS activity,[3]; listed as Apocynin,prevents the anticipated LTIH increase in iNOS activity
same,"baseline (sham LTIH) iNOS activity, relative to saline therapy",[3]; sham LTIH,no effect
same,reduction in iNOS mRNA,[4],94%
same,"COX-2 gene expression, reduction relative to sham LTIH",[5],65%
same,LTIH COX-2 response,[5],completely blocked the LTIH COX-2 response
